The target in assay [1] is Cldn-4 deletion mutant proteins fused to GST (Mus musculus, UniProt O35054). In kind it is binding.
The test system of assay [2] is Cldn-4 deletion mutant proteins fused to GST. The class given is binding, Mouse.

Where no end group is shown, it is not given here.

Consider SLDAGQYVLVMKANSSYSGNYPYSILFQKF [Cpe30], for which, in assay [1], the “binding to GST-Ecl2 without any TM domain” value was “detectable binding activity, albeit at much lower affinity”; the “binding to TM3.Ecl2.TM4” value is “consistent binding”; the “sensorgram behaviour with full length Cldn-4 fusion” value is on record as “slight decrease in the late stages of association”. The “binding to GST cldn-4 fusion proteins” value in assay [2] was “high affinity specific binding”.

Source of the values: US8258257B2 (The Regents of the University of California, priority 2008, dated 2012).
